System: T cell clone HER500.23c21
Assay: HLA-DR restriction: blocking anti-MHC class II antibodies in HERp270-284 stimulation of HER500.23c21 (IFNγ ELISA)
Format: cell-based, human
Conditions: antibody blocking with anti-HLA-DR and anti-HLA-DP/-DQ
Procedure: FIG. 3. HLA-DR Restriction. Autologous EBV-LcL at 2×10^5 cells/mL and HERp270-284 was used to stimulate the T cell clone HER500.23c21 (1×10^5 cells/well), with and without the addition of blocking anti-MHC class II antibodies. Anti-HLA-DR ♦ and anti-HLA-DQ/anti-HLA-DP ▪ were titrated at the concentrations shown in cRPMI+10% FBS. Wells also contained EBV-LcLs, HER500.23c21T cell clone and peptide (1 μg/mL). Assay was incubated for 48 hours at 37° C. with 5% CO2. Supernatants were harvested and frozen at −20° C. and at a later date, analyzed for IFNγ production using ELISA. Multiple experiments were performed, mean triplicate values for one representative experiment is shown.
HLA-DR Restriction and Promiscuity. To determine HLA-DR restriction of the T cell epitope HERp270-284, anti-HLA-DR mAb L243, HLA-DQ mAb 1a3 or HLA-DP mAb B7/21 (20-1.25 μg/mL) were cultured with T cell clone HER.23c21, peptide HERp270-284 and autologous EBV-LcL in cRPMI+10% FBS media. Supernatants were harvested after 48 hours and tested for IL-2 and IFNγ production. […]
In order to determine which HLA molecules were responsible for presenting HERp270-284 to HER500.23c21, HLA-blocking antibodies were used to inhibit presentation and T cell activation. […] T cell stimulation was determined by IFNγ production.

Question: For “ALVTYNTDTFESMPN (HER-2/Neu peptide 270-284, HER500 peptide #63, HERp270-284, HER-2/Neu epitope 270-284, residues 3-17 of SEQ ID NO1) [Peptide 63]”, which “HLA restriction of HER500.23c21 recognition” value is on record?
Answer: HLA-DR restricted

— US8263757B2, “Promiscuous HER-2/Neu CD4 T cell epitopes” (Dendreon Corporation, priority 2006, dated 2012)
